Laboratory results from publication PMC9571063 (Molecules, 2022).
Where two headings read alike, the source gives them in different places.

Legend:
HsDYRK1A = biological target: T1, HsDYRK1A (Homo sapiens, UniProt Q13627); experiment: ADP-Glo kinase assay; assay type: biochemical; conditions: n=2, read-out: % of residual activity Hs_DYRK1A
T1 construct: host or cells: Sf9 insect cells (baculovirus)

Hs_CDK5/p25 = biological target: T2, Hs_CDK5/p25 (Homo sapiens, UniProt Q00535); experiment: ADP-Glo kinase assay, primary screen; assay type: biochemical; conditions: n=2, read-out: % of residual activity Hs_CDK5/p25
T2 construct: host or cells: bacteria
T2 sequence (Q00535 whole entry): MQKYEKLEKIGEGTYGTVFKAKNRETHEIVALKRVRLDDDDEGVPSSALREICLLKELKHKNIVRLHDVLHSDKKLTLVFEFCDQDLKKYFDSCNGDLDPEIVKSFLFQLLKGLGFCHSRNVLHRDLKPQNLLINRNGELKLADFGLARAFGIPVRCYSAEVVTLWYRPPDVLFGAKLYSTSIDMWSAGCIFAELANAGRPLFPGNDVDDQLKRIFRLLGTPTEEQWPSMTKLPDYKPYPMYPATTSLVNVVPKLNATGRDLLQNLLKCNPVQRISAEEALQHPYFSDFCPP
T2 sequence (Q15078 99-307 partner limits assumed): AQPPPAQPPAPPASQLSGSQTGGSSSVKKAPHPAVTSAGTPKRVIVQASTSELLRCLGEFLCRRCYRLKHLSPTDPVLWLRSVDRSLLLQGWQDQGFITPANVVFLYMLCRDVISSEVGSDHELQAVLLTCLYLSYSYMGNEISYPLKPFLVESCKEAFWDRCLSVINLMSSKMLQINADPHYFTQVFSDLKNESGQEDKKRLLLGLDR

Hs_CDK9/CyclinT = biological target: T3, Hs_CDK9/CyclinT (Homo sapiens, UniProt P50750); experiment: ADP-Glo kinase assay, primary screen; assay type: biochemical; conditions: n=2, read-out: % of residual activity Hs_CDK9/CyclinT
T3 construct: host or cells: Sf9 insect cells (baculovirus)
T3 sequence (P50750 whole entry): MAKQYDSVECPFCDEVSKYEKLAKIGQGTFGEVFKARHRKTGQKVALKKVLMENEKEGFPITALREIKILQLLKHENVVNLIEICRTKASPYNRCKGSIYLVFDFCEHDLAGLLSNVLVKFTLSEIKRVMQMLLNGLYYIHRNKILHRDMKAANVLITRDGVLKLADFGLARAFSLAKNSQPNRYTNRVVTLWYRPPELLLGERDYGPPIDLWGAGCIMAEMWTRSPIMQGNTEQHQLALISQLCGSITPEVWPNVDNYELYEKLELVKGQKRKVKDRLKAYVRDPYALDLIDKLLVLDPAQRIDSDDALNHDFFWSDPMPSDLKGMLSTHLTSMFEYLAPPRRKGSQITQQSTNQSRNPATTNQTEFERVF
T3 sequence (O60563 whole entry partner): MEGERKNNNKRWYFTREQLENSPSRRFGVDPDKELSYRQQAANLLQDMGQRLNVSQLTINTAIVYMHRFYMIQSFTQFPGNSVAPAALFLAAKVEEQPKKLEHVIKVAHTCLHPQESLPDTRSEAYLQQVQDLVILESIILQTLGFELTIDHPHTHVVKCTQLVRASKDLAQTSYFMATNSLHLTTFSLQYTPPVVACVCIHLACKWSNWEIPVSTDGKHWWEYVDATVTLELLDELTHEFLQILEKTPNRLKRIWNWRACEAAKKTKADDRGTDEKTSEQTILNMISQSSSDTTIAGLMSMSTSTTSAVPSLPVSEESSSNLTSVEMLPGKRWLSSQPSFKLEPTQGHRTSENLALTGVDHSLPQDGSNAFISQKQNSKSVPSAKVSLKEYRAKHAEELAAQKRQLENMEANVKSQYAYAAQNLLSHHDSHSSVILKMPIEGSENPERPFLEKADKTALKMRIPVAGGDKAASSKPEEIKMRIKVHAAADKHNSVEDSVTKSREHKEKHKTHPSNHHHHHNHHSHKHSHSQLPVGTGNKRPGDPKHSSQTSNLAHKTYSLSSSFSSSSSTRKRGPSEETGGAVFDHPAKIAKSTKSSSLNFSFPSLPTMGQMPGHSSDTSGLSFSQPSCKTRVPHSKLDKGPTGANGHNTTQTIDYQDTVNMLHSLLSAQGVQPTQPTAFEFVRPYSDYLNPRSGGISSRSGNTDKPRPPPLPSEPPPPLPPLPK

[1] = cytotoxic assay, nuclei count (Hoechst, HCS); assay type: cell-based; conditions: human, MDA-MB-231 cells (breast carcinoma); 48 h treatment; read-out: Cytotoxic studies IC50 MDA-MB-231
MmCLK1 = biological target: T4, MmCLK1 (Mus musculus, UniProt P22518); experiment: ADP-Glo kinase assay; assay type: biochemical; conditions: n=2, read-out: % of residual activity Mm_CLK1
T4 construct: host or cells: bacteria
T4 sequence (P22518 whole entry): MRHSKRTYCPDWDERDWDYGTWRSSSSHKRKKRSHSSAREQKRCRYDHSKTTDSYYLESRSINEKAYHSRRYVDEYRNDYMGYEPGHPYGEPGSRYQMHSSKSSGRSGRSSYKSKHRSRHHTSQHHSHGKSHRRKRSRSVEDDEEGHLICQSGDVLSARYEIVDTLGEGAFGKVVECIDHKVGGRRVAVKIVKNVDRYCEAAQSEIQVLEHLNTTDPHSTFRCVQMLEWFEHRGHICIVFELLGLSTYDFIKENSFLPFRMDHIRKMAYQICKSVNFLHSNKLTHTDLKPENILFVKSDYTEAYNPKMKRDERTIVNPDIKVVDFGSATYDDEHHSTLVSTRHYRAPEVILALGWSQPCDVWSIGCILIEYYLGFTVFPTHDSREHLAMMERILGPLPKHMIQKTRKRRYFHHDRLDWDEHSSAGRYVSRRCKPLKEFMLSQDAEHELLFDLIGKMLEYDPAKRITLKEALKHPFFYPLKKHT

[2] = cytotoxic assay, nuclei count (Hoechst, HCS); assay type: cell-based, human; conditions: human, human skin fibroblasts (non-cancerous reference cells); 48 h treatment; some cells add low/moderate/high amplitude; read-out: Cytotoxic studies IC50 Fibroblasts
Procedure: (§1) To complete our study, we performed a cytotoxicity screening of the 15 molecules, investigating 7 representative cancer cell lines. The compound’s effect on cell viability was evaluated on Huh-7 (hepatocellular carcinoma), CaCo2, HCT-116 (colorectal adenocarcinoma), MCF7, MDA-MB231, MDA-MB468 (breast carcinoma), PC3 (prostate carcinoma) and NCI-H727 (lung carcinoid). Human skin fibroblasts were used as reference for non-cancerous cells. Roscovitine, Doxorubicin and Taxol were used as positive controls. The cells were treated for 48 h with 25 µM compounds and fixed in cooled 90% ethanol/5% acetic acid for 20 min. The nuclei were stained with Hoechst 33342 and counted using HCS technology.
(§2) HuH7, CaCo-2, MDA-MB-231, HCT116, PC3, MCF7 and NCI-H727 cancer cell lines were obtained from the ECACC collection (Porton Down, UK). Cells were grown at 37 °C, 5% CO2 in ECACC recommended media: DMEM for HuH7, MDA-MB-231 and fibroblast, EMEM for MCF7and CaCo-2, McCoy’s for HCT116 and RPMI for PC3 and NCI-H727. All culture media were supplemented with 10% of FBS, 1% of penicillin-streptomycin and 2 mM glutamine.
(§3) Chemicals were solubilized in DMSO at a concentration of 10 mM (stock solution) and diluted in culture medium to the desired final concentrations.
(§4) The cytotoxic assay of chemical was performed at 25 µM. Cells were plated in 96 wells plates (4000 cells/well). Twenty-four hours after seeding, cells were exposed to chemicals. After 48 h of treatment, cells were washed in PBS and fixed in cooled 90% ethanol/5% acetic acid for 20 min and the nuclei were stained with Hoechst 33342 (B2261 Sigma). Image acquisition and analysis were performed using a CellomicsArrayScan VTI/HCS Reader (ThermoScientific, Waltham, MA, USA). The survival percentages were calculated as the percentage of cell number after compound treatment over cell number after DMSO treatment.

Hs_HASPIN = biological target: T5, Hs_HASPIN (Homo sapiens, UniProt Q8TF76); experiment: ADP-Glo kinase assay, primary screen; assay type: biochemical; conditions: n=2, read-out: % of residual activity Hs_HASPIN
T5 construct: host or cells: bacteria
T5 sequence (Q8TF76 1-798): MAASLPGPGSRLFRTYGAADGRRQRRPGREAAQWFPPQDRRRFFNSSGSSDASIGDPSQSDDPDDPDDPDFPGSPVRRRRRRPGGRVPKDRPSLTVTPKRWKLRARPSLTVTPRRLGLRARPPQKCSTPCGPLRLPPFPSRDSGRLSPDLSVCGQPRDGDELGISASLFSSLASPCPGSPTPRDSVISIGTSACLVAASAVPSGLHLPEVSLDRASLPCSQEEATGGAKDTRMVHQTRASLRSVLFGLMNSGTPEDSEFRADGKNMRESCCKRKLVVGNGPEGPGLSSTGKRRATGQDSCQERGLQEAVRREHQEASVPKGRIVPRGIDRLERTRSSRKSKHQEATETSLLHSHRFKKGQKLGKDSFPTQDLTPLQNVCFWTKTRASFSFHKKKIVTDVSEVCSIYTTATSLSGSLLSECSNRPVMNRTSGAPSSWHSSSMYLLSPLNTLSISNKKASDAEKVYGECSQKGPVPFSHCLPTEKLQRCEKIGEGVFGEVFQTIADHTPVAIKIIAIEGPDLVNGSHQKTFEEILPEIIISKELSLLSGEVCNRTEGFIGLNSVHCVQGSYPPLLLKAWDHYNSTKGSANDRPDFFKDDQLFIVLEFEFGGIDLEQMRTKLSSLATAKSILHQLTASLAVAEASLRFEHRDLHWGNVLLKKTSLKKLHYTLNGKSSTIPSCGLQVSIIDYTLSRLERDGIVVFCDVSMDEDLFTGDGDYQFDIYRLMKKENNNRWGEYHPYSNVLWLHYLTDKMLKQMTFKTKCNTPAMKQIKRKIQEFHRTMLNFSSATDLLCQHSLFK

Hs_PIM1 = biological target: T6, Hs_PIM1 (Homo sapiens, UniProt P11309); experiment: ADP-Glo kinase assay, primary screen; assay type: biochemical; conditions: n=2, read-out: % of residual activity Hs_PIM1
T6 construct: host or cells: Sf9 insect cells (baculovirus)
T6 sequence (P11309 whole entry): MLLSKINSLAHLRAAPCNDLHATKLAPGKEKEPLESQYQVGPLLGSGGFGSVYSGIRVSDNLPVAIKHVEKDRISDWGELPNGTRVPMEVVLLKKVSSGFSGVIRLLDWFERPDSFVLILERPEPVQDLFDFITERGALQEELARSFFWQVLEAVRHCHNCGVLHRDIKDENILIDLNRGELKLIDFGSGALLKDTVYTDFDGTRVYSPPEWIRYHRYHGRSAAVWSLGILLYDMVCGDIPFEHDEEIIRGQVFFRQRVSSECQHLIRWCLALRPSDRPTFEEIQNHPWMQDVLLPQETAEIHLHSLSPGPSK

[3] = cytotoxic assay, nuclei count (Hoechst, HCS); assay type: cell-based; conditions: human, HuH7 cells (hepatocellular carcinoma); 48 h treatment; read-out: Cytotoxic studies IC50 HuH7
[4] = cytotoxic assay, nuclei count (Hoechst, HCS); assay type: cell-based; conditions: human, 48 h treatment
Procedure: as §1, §2, §3
as §4, with “The cytotoxic assay of chemical was performed at 25 µM.” left out

[5] = cytotoxic assay, nuclei count (Hoechst, HCS); assay type: cell-based; conditions: human, MCF7 cells (breast carcinoma); 48 h treatment; read-out: Cytotoxic studies IC50 MCF7
Procedure: as §1, §2, §3, §4

Hs_CK1ε = biological target: T7, Hs_CK1ε (Homo sapiens, UniProt P49674); experiment: ADP-Glo kinase assay, primary screen; assay type: biochemical; conditions: n=2, read-out: % of residual activity Hs_CK1ε
T7 construct: host or cells: Sf9 insect cells (baculovirus)
T7 sequence (P49674 whole entry): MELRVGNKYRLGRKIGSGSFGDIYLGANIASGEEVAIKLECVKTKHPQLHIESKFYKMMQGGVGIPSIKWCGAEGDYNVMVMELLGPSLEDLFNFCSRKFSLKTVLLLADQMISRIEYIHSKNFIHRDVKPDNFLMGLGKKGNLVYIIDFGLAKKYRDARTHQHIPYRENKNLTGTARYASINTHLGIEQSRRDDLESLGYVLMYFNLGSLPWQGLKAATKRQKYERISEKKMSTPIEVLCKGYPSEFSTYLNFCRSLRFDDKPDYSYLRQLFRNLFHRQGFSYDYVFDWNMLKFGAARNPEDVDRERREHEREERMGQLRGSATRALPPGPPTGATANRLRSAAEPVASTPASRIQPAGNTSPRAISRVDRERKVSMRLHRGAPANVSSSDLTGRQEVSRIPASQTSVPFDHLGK

Rn_DYRK1A = biological target: T8, Rn_DYRK1A (Rattus norvegicus, UniProt Q63470); experiment: ADP-Glo kinase assay, primary screen; assay type: biochemical; conditions: n=2, read-out: % of residual activity Rn_DYRK1A
T8 construct: host or cells: bacteria

[6] = cytotoxic assay, nuclei count (Hoechst, HCS); assay type: cell-based; conditions: human, Caco-2 cells (colorectal adenocarcinoma); 48 h treatment; read-out: Cytotoxic studies IC50 Caco2
Hs_GSK3β = biological target: T9, Hs_GSK3β (Homo sapiens, UniProt P49841); experiment: ADP-Glo kinase assay, primary screen; assay type: biochemical; conditions: n=2, read-out: % of residual activity Hs_GSK3β
T9 construct: host or cells: Sf9 insect cells (baculovirus)
T9 sequence (P49841 whole entry): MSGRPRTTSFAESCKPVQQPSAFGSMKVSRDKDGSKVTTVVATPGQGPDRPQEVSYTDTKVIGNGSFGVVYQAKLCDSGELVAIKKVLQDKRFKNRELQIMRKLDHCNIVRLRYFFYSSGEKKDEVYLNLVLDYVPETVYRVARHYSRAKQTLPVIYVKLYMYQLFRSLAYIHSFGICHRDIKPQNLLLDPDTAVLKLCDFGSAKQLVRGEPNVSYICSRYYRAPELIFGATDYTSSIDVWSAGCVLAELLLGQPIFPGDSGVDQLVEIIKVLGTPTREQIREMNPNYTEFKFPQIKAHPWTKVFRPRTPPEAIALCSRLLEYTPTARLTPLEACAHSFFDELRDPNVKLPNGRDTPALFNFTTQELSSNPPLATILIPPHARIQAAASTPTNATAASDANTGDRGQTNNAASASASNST

[7] = HCT116 cells (colorectal adenocarcinoma), read-out: Cytotoxic studies IC50 HCT116
[8] = MDA-MB-468 cells (breast carcinoma), read-out: Cytotoxic studies IC50 MDA-MB-468

| SMILES | remaining activity at 1 µM (HsDYRK1A) | remaining activity at 10 µM (HsDYRK1A) | remaining activity at 1 µM (Hs_CDK5/p25) | remaining activity at 10 µM (Hs_CDK5/p25) | remaining activity at 1 µM (Hs_CDK9/CyclinT) | remaining activity at 10 µM (Hs_CDK9/CyclinT) | IC50 at 48 h [1] | remaining activity at 1 µM (MmCLK1) | remaining activity at 10 µM (MmCLK1) | IC50 at 48 h [2] | remaining activity at 1 µM (Hs_HASPIN) | remaining activity at 10 µM (Hs_HASPIN) | remaining activity at 1 µM (Hs_PIM1) | remaining activity at 10 µM (Hs_PIM1) | IC50 at 48 h [3] | IC50 at 48 h [4, 7] | IC50 at 48 h [4, 8] | IC50 at 48 h [5] | remaining activity at 1 µM (Hs_CK1ε) | remaining activity at 10 µM (Hs_CK1ε) | other results |
| --- | --- | --- | --- | --- | --- | --- | --- | --- | --- | --- | --- | --- | --- | --- | --- | --- | --- | --- | --- | --- | --- |
| CC(C)(C)OC(=O)N[C@H]1CC[C@H](n2cc(COc3cccc4cnc(Nc5cccc(Cl)c5)nc34)nn2)CC1 [18a, tert-Butyl ((trans)-4-(4-(((2-((3-chlorophenyl)amino)quinazolin-8-yl)oxy)methyl)-1H-1,2,3-triazol-1-yl)cyclohexyl)carbamate] | ≥ 100% | 66% | 69% | 58% | 92% | 59% | 7 µM | 93% | 70% | > 25 µM | 77% | 70% | 77% | 74% | 4 µM | 5 µM | 15 µM | > 25 µM | ≥ 100% | 78% | remaining activity at 1 µM (Rn_DYRK1A): 92%; remaining activity at 10 µM (Rn_DYRK1A): ≥ 100%; IC50 at 48 h [6]: 16 µM; remaining activity at 1 µM (Hs_GSK3β): 88%; remaining activity at 10 µM (Hs_GSK3β): 60% |
| CC(C)(C)OC(=O)N[C@H]1CC[C@@H](n2cc(COc3cccc4cnc(Nc5cccc(Cl)c5)nc34)nn2)CC1 [15a, tert-Butyl ((cis)-4-(4-(((2-((3-chlorophenyl)amino)quinazolin-8-yl)oxy)methyl)-1H-1,2,3-triazol-1-yl)cyclohexyl)carbamate] | 95% | 63% | ≥ 100% | 96% | 64% | 55% | 3 µM | 98% | 60% | > 25 µM | 92% | 74% | 86% | 74% | 7 µM | 7 µM | 18 µM | 23 µM | ≥ 100% | 97% | remaining activity at 1 µM (Rn_DYRK1A): ≥ 100%; remaining activity at 10 µM (Rn_DYRK1A): 97%; IC50 at 48 h [6]: > 25 µM; remaining activity at 1 µM (Hs_GSK3β): ≥ 100%; remaining activity at 10 µM (Hs_GSK3β): 86% |
